Laboratory results as given in patent publication US20170051249A1, “MANIPULATION OF OVARIAN PRIMORDIAL FOLLICLES” (The Board of Trustees of the Leland Stanford junior …, priority 2009, published 2017).
Blank lines part the entries; values can stand above or below the compound they belong to.

Tests used:
[1] = test system: dormant primordial follicles of neonatal ovaries; assay: Transient in vitro exposure of neonatal mouse ovaries to PTEN inhibitor, kidney capsule transplantation into ovariectomized FSH-treated hosts, histology (Examples 2 and 3); format: in vivo
Protocol: Ovaries fixed for at least 24 h are dehydrated, embedded in paraffin, and serially sectioned at 5 μm intervals. The sections are mounted on glass slides and stained with Mayers hematoxylin and eosin. Follicles are counted using the dissector and fractionator principles (see Mayhew et al. (1991) Exp Physiol 76:639-65). Every fifth section of each ovary is used for analysis. Follicle stages are determined based on the classification used by Flaws et al. (1997) Biol. Reprod. 57:1233-1237. Follicles are assessed blindly and confirmed by two investigators. Data is expressed as percentage of follicle per ovary.
Follicles are identified as healthy if they contained an intact oocyte, organized granulosa and thecal cell layers, and no pyknotic bodies. Follicles are considered atretic if they contain a degenerating oocyte, disorganized granulosa cells with pyknotic nuclei or apoptotic bodies. Follicles will be scored as “primordial” if they contain an intact oocyte with a visible nucleolus surrounded by a single layer of fusiform-shaped granulosa cells. Follicles are scored as “primary” if they consist of an intact, enlarged oocyte with a visible nucleolus and a single layer of cuboidal granulosa cells. Follicles are scored as preantral if they contain an oocyte with a visible nucleolus and more than one layer of granulosa or thecal cells. To obtain an estimate of the total number of follicles per ovary, the number of primordial, primary, and preantral follicles are multiplied by 5 to account for the fact that every fifth section was used for analyses. Statistical analysis of follicle number is performed using Sigmastat statistical software v.2 (Jandel Corporation, San Rafael, Calif., USA).
Transient incubation of neonatal ovaries in vitro with bpV(pic) may avoid the adverse side effects of the PTEN inhibitor in vivo to allow a tissue-specific action of the inhibitor. After treatment using the PTEN inhibitor, ovaries are transplanted into adult hosts. To facilitate follicle growth, adult recipients are ovariectomized to increase endogenous gonadotropin levels. […]

[2] = test system: human primordial follicles; assay: Human follicle activation: cortical cubes treated in vitro, xeno-transplanted into kidney capsule of ovariectomized SCID mice, follicle counting; format: in vivo
Protocol: (§1) Informed consent from the patient and approval from the Human Subject Committee of Akita University were obtained. Ovarian cortex was isolated and cut into small cubes (˜1 mm^3). After treatment of cortical cubes for 1 h with bpV(pic), some samples were used for immunohistochemical staining for Foxo3. Some ovarian cubes were also cultured in MEM-a medium containing 10% human serum albumin (Mitsubishi Tanabe Pharma Corp, Osaka, Japan), 1% antibiotic/antimycotic solution (Invitrogen), and 0.3 IU/ml FSH. Pairs of cortical cubes were treated with bpV(pic) ([…]) or saline for 24 h before xeno-transplantation into each side of the kidney capsule of ovariectomized, immune-deficient SCID mice. An i.p. injection of antibiotic (4 μg/g body weight; gentamicin; Invitrogen) was given while animals were anesthetized by 2,2,2-tribromoethanol (0.4 mg/g body weight; avertin; Sigma). Three day after transplantation, animals were treated i.p. with FSH (1 IU/animal) every 48 h for 24 weeks. At 36 h before sample retrieval, hCG (20 IU/animal) was injected subcutaneously. Ovarian grafts were recovered for histological analyses and follicle counting.

[3] = test system: Foxo3 nuclear export in primordial oocytes; assay: Foxo3 nuclear export in primordial follicles of human ovarian cortical cubes; format: cell-based; conditions: 1 h treatment, 100 uM
Protocol: as §1

PTEN = PTEN (Homo sapiens, UniProt P60484); conditions: in vitro, known inhibitors; read-out: IC50 for inhibition of PTEN; cited from earlier work
PTP = conditions: read-out: IC50 as PTP inhibitor; cited from earlier work
[4] = antral follicles of four grafts, after hCG

PTEN, sequence (P60484 whole entry): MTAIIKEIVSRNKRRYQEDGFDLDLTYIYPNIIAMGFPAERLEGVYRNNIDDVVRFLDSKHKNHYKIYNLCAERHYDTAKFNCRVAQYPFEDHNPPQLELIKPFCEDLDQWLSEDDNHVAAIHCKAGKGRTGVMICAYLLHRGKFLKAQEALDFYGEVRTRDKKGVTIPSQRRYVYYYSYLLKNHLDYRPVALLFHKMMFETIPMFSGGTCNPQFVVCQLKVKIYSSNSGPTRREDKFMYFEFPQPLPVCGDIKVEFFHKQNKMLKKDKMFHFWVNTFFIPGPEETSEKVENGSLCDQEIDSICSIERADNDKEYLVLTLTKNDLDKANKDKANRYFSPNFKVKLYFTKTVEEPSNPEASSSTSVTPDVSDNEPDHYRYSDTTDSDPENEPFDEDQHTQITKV

effect on follicle development and nuclear maturation of the preovulatory oocyte ([1]; 6 h in vitro exposure, 15 days after transplantation, hCG 8 h): did not cause detrimental effects | malignancy in xenografted human ovaries or hosts ([2]; six months of transplantation, short term exposure): No malignancy was found
Compound: O.O.O=C([O-])c1ccccn1.OO.OO.[K+].[K+].[OH-].[V] [bpV(pic), dipotassium bisperoxo(picolinato)oxovanadate (V)]
ovarian size as compared with control ovaries ([1]; 100 μM for 24 h in vitro, twelve days after transplantation): clear increases in sizes | decrease of the percentage of primordial (Pmd) follicles as compared to controls ([1]; 250 uM for 6 h in vitro, day 3 Balb/c ovaries, transplanted, FSH 12 days, preliminary analysis, three pairs of ovaries): 60% | follicles that left the dormant primordial pool and developed into larger follicles ([2]; 24 h treatment (100 mM), after transplantation, FSH 24 weeks): 89% | graft size as compared with controls ([2]; 24 h treatment, 6 months after xeno-transplantation): major increases in graft sizes | increases in the number of secondary and antral follicles ([2]; 24 h treatment, after xeno-transplantation): ~4 fold | number of oocytes at GV stage [2, 4]: 5 | number of oocytes at MI stage [2, 4]: 15 | number of oocytes at MII stage [2, 4]: 12 | number of antral follicles (>1 mm diameter) ([2]; in four ovarian grafts): 32 | increase in the number of antral follicles ([2]; versus paired control grafts): 4 fold | increase in the number of mature (MI & MII) oocytes ([2]; versus paired control grafts): 27 fold | increase in nuclear exclusion of Foxo3 versus controls [3]: 2 fold | IC50 (PTEN): 31 nM

Compound: OO.OO.[K+].[OH-].[V].c1cnc2c(c1)ccc1cccnc12 [potassium bisperoxo (1,10-phenanthroline)oxovanadate (V)]
IC50 (PTEN): 38 nM

Compound: dipotassium bisperoxo(5-hydroxypyridine-2-carboxyl)oxovanadate (V)
IC50 (PTEN): 14 nM

Compound: monoperoxo(picolinato)oxovanadate(V)
IC50 (PTP): 18000 nM

Compound: potassium bisperoxo(bipyridine)oxovanadate (V)
IC50 (PTEN): 18 nM
